Experimental data taken from ChEMBL document CHEMBL1143353, “Pyrazolo[1,5-a]-1,3,5-triazine as a purine bioisostere: access to potent cyclin-dependent kinase inhibitor (R)-roscovitine analogue” (J Med Chem, 2009).

Key:
A549 = assay: cells; conditions: Homo sapiens, A549, 72 h
Description: Antiproliferative activity against human A549 cells after 72 hrs by ViaLight assay

cells = conditions: Homo sapiens, Hs-578T, 72 h
Description: Antiproliferative activity against human Hs 578T cells after 72 hrs by ViaLight assay

K562 = assay: cells; conditions: Homo sapiens, K562, 72 h
Description: Antiproliferative activity against human K562 cells after 72 hrs by ViaLight assay

SH-SY5Y = assay: Antiproliferative activity against human SH-SY5Y cells after 48 hrs by MTS reduction assay; format: functional, cell-based
SK-MEL-2 = assay: cells; conditions: Homo sapiens, SK-MEL-2, 72 h
Description: Antiproliferative activity against human SK-MEL-2 cells after 72 hrs by ViaLight assay

COLO 205 = assay: cells; conditions: Homo sapiens, COLO 205, 72 h
Description: Antiproliferative activity against human COLO205 cells after 72 hrs by ViaLight assay

MCF7 = assay: cells; conditions: Homo sapiens, MCF7, 72 h
Description: Antiproliferative activity against human MCF7 cells after 72 hrs by ViaLight assay

ACHN = assay: cells; conditions: Homo sapiens, 72 h
Description: Antiproliferative activity against human ACHN cells after 72 hrs by ViaLight assay

MDA-MB-468 = assay: cells; conditions: Homo sapiens, MDA-MB-468, 72 h
Description: Antiproliferative activity against human MDA-MB-468 cells after 72 hrs by ViaLight assay

LOX IMVI = assay: cells; conditions: Homo sapiens, 72 h
Description: Antiproliferative activity against human LOXIMVI cells after 72 hrs by ViaLight assay

HOP-92 = assay: cells; conditions: Homo sapiens, HOP-92, 72 h
Description: Antiproliferative activity against human HOP92 cells after 72 hrs by ViaLight assay

SR = assay: cells; conditions: Homo sapiens, 72 h
Description: Antiproliferative activity against human SR cells after 72 hrs by ViaLight assay

HOP-62 = assay: cells; conditions: Homo sapiens, HOP-62, 72 h
Description: Antiproliferative activity against human HOP62 cells after 72 hrs by ViaLight assay

A498 = assay: cells; conditions: Homo sapiens, A498, 72 h
Description: Antiproliferative activity against human A498 cells after 72 hrs by ViaLight assay

HEK293 = assay: Antiproliferative activity against human HEK293 cells after 48 hrs by MTS reduction assay; format: cell-based; conditions: HEK293, 48 h
SK-MEL-5 = assay: cells; conditions: Homo sapiens, SK-MEL-5, 72 h
Description: Antiproliferative activity against human SK-MEL-5 cells after 72 hrs by ViaLight assay

## CC[C@H](CO)Nc1nc(NCc2ccccc2)n2ncc(C(C)C)c2n1
A549
  GI50: 1.58 µM
  TGI: 41.4 µM
A549; read-out: LC50
  CC50: > 100 µM
A549; read-out: pGI50 (converted)
  GI50: 2.51 µM
A549; read-out: pLC50 (converted)
  CC50: 100 µM
A549; read-out: pTGI
  TGI: 41.7 µM
cells
  GI50: 1.59 µM
  TGI: 6.16 µM
cells; read-out: LC50
  CC50: > 100 µM
cells; read-out: pGI50 (converted)
  GI50: 1.58 µM
cells; read-out: pLC50 (converted)
  CC50: 100 µM
cells; read-out: pTGI
  TGI: 6.17 µM
K562
  GI50: 2.44 µM
  TGI: 7.38 µM
K562; read-out: LC50
  CC50: > 100 µM
K562; read-out: pGI50 (converted)
  GI50: 2.45 µM
K562; read-out: pLC50 (converted)
  CC50: 100 µM
K562; read-out: pTGI
  TGI: 7.41 µM
SH-SY5Y
  IC50: 2.7 µM
SK-MEL-2
  GI50: 1.47 µM
  TGI: 6 µM
SK-MEL-2; read-out: LC50
  CC50: > 100 µM
SK-MEL-2; read-out: pGI50 (converted)
  GI50: 1.48 µM
SK-MEL-2; read-out: pLC50 (converted)
  CC50: 100 µM
SK-MEL-2; read-out: pTGI
  TGI: 6.03 µM
COLO 205
  GI50: 1.12 µM
  TGI: 3.15 µM
COLO 205; read-out: LC50
  CC50: 8.86 µM
COLO 205; read-out: pGI50 (converted)
  GI50: 1.12 µM
COLO 205; read-out: pLC50 (converted)
  CC50: 8.71 µM
COLO 205; read-out: pTGI
  TGI: 3.16 µM
MCF7
  GI50: 0.59 µM
  TGI: 7.99 µM
MCF7; read-out: LC50
  CC50: > 100 µM
MCF7; read-out: pGI50 (converted)
  GI50: 0.589 µM
MCF7; read-out: pLC50 (converted)
  CC50: 100 µM
MCF7; read-out: pTGI
  TGI: 7.94 µM
ACHN
  GI50: 0.81 µM
  TGI: 10.7 µM
ACHN; read-out: LC50
  CC50: 49.1 µM
ACHN; read-out: pGI50 (converted)
  GI50: 0.813 µM
ACHN; read-out: pLC50 (converted)
  CC50: 49 µM
ACHN; read-out: pTGI
  TGI: 10.7 µM
MDA-MB-468
  GI50: 1.88 µM
  TGI: 5.19 µM
MDA-MB-468; read-out: LC50
  CC50: 63.5 µM
MDA-MB-468; read-out: pGI50 (converted)
  GI50: 1.86 µM
MDA-MB-468; read-out: pLC50 (converted)
  CC50: 63.1 µM
MDA-MB-468; read-out: pTGI
  TGI: 5.25 µM
LOX IMVI
  GI50: 1.07 µM
  TGI: 10.3 µM
LOX IMVI; read-out: LC50
  CC50: 34.4 µM
LOX IMVI; read-out: pGI50 (converted)
  GI50: 1.07 µM
LOX IMVI; read-out: pLC50 (converted)
  CC50: 34.7 µM
LOX IMVI; read-out: pTGI
  TGI: 10.2 µM
HOP-92
  GI50: 1.67 µM
  TGI: 7.1 µM
HOP-92; read-out: LC50
  CC50: > 100 µM
HOP-92; read-out: pGI50 (converted)
  GI50: 1.66 µM
HOP-92; read-out: pLC50 (converted)
  CC50: 100 µM
HOP-92; read-out: pTGI
  TGI: 7.08 µM
SR
  GI50: 0.25 µM
  TGI: 1.59 µM
SR; read-out: LC50
  CC50: > 100 µM
SR; read-out: pGI50 (converted)
  GI50: 2.51 µM
SR; read-out: pLC50 (converted)
  CC50: 100 µM
SR; read-out: pTGI
  TGI: 1.58 µM
HOP-62
  GI50: 2.1 µM
  TGI: 8.72 µM
HOP-62; read-out: LC50
  CC50: > 100 µM
HOP-62; read-out: pGI50 (converted)
  GI50: 2.09 µM
HOP-62; read-out: pLC50 (converted)
  CC50: 100 µM
HOP-62; read-out: pTGI
  TGI: 1.1 µM
A498
  GI50: 1.25 µM
  TGI: 3.44 µM
A498; read-out: LC50
  CC50: 9.47 µM
A498; read-out: pGI50 (converted)
  GI50: 1.12 µM
A498; read-out: pLC50 (converted)
  CC50: 9.55 µM
A498; read-out: pTGI
  TGI: 3.31 µM
HEK293
  IC50: 7.6 µM
SK-MEL-5
  GI50: 1.78 µM
  TGI: 4.96 µM
